Results from patent US11639343B2, “Compounds targeting and degrading BCR-ABL protein and its antitumor application” (ShanghaiTech University, priority 2019, dated 2023).

What was measured:
BCR-ABL protein = BCR-ABL protein (Homo sapiens, UniProt P00519); assay: Western blot degradation of BCR-ABL in K562 cells; type: cell-based; parameters: Western blot was used to detect the expression of BCR-ABL and c-ABL protein in K562 cells; BCR (fusion partner, P11274); endogenous in cells; host or cells: K562; the other entry of the earlier key: BCR (P11274, Breakpoint cluster region protein); conditions: 16 hours; for DC50: 1 nM-10 μM
Method: (§1) (1) Cell seed: K562 cells were added to the 24 well plates, with a cell density of 3×10^5/ml and a total volume of 1.5 ml; Five concentration gradients, 1 nm, 10 nm, 100 nm, 1 μM, and 10 μM, were respectively set for PROTAD series compounds and comparative examples compounds (Dasa-6-2-2-6-VHL, Dasa-6-2-6-CRBN). […] After 16 hours of drug treatment, the cells were collected in 1.5 ml ep tube, centrifuged at 3000 rpm for 3 minutes, and then added 30 μL PBS and 30 ul 2×SDS to cell precipitated, lysate Heat at 100° C. for 5 minutes, then place on ice for 5 minutes, centrifuged at 10000 rpm for 5 minutes, and take the supernatant as the total protein extracted. The protein concentration was determined by the Bradford method. After each sample was at the same concentration, bromophenol blue was added as the sample indicator.
(§2) (2) Electrophoresis: the starting voltage of the BioRad electrophoresis instrument was 80V, and as the dye enters the separation gel, the voltage was adjusted to 120V;
(§3) (3) Film transfer: prepare filter paper and nitrocellulose membrane with the corresponding size of the gel, filter paper, and NC film were soaked in transfer electrophoresis buffer.
(§4) DC50 (concentration required to degrade protein by half) were calculated based on the intensity from western blot, and data were analyzed via Prism GraphPad with non-linear regression.

c-ABL protein = c-ABL protein (Homo sapiens, UniProt P00519); assay: Western blot degradation of c-ABL in K562 cells; type: cell-based; parameters: Western blot was used to detect the expression of BCR-ABL and c-ABL protein in K562 cells; endogenous in cells; host or cells: K562; conditions: 16 hours, 1 nM-10 μM
Method: as §1, §2, §3, §4

K562 (BCR-ABL+) cells = assay: CCK-8 proliferation inhibition, K562 cells; type: cell-based, human; conditions: Homo sapiens, K562, 48 h, CCK-8, 48 hours of drug treatment; read-out: Proliferative inhibitory activity (IC50, nM) K562 (BCR-ABL+);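 note: Ten-point threefold dilution series starting at 10 µM, absorbance at 450 nm after 2 h with CCK-8, DMSO as negative control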
U937 (BCR-ABL-) cells = assay: CCK-8 proliferation inhibition, U937 cells; type: cell-based, human; conditions: Homo sapiens, U-937; CCK-8, 48 hours of drug treatment, highest concentration 10 μM; read-out: Proliferative inhibitory activity (IC50, nM) U937 (BCR-ABL-);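 note: Ten-point threefold dilution series, absorbance at 450 nm after 2 h with CCK-8 reagent, DMSO as negative control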
HEK293 (BCR-ABL-) cells = assay: CCK-8 proliferation inhibition, HEK293 cells; conditions: Homo sapiens, HEK293, 48 h, read-out: Proliferative inhibitory activity (IC50, nM) HEK293 (BCR-ABL-);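 note: Ten-point threefold dilution series starting at 10 µM, CCK-8 absorbance at 450 nm read after 2 h reagent incubation, DMSO-treated cells as negative control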

Chain of c-ABL protein (P00519 whole entry): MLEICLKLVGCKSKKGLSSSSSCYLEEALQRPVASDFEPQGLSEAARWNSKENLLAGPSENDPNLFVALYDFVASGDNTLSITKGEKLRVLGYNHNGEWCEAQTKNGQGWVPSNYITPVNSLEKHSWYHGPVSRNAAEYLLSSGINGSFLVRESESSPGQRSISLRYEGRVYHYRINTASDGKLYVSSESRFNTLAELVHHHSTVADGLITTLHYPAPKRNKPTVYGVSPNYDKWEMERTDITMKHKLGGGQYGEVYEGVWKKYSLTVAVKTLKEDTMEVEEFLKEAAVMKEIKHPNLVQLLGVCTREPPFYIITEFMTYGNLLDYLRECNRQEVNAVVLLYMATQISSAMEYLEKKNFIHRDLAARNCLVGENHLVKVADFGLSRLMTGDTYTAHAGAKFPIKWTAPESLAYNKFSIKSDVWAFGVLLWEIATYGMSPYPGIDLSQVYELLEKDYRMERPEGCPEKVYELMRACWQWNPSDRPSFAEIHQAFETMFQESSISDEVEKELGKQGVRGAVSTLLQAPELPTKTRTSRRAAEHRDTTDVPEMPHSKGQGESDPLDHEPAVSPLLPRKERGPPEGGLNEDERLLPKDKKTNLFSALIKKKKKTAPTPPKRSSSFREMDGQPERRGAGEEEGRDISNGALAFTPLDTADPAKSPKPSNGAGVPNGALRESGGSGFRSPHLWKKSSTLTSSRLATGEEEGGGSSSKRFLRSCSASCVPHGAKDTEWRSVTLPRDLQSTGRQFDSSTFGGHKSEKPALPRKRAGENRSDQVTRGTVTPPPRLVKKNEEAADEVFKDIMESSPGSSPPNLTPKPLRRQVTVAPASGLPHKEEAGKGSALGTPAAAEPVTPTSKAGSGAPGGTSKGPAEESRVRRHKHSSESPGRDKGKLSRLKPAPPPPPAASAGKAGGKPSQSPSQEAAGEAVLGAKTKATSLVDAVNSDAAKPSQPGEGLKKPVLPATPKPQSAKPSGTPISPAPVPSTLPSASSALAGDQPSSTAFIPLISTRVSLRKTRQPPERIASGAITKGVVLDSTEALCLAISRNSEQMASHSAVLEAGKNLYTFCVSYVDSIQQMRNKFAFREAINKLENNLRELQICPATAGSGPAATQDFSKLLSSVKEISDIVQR
Chain of BCR-ABL protein (P00519 with tags, fused parts or gaps): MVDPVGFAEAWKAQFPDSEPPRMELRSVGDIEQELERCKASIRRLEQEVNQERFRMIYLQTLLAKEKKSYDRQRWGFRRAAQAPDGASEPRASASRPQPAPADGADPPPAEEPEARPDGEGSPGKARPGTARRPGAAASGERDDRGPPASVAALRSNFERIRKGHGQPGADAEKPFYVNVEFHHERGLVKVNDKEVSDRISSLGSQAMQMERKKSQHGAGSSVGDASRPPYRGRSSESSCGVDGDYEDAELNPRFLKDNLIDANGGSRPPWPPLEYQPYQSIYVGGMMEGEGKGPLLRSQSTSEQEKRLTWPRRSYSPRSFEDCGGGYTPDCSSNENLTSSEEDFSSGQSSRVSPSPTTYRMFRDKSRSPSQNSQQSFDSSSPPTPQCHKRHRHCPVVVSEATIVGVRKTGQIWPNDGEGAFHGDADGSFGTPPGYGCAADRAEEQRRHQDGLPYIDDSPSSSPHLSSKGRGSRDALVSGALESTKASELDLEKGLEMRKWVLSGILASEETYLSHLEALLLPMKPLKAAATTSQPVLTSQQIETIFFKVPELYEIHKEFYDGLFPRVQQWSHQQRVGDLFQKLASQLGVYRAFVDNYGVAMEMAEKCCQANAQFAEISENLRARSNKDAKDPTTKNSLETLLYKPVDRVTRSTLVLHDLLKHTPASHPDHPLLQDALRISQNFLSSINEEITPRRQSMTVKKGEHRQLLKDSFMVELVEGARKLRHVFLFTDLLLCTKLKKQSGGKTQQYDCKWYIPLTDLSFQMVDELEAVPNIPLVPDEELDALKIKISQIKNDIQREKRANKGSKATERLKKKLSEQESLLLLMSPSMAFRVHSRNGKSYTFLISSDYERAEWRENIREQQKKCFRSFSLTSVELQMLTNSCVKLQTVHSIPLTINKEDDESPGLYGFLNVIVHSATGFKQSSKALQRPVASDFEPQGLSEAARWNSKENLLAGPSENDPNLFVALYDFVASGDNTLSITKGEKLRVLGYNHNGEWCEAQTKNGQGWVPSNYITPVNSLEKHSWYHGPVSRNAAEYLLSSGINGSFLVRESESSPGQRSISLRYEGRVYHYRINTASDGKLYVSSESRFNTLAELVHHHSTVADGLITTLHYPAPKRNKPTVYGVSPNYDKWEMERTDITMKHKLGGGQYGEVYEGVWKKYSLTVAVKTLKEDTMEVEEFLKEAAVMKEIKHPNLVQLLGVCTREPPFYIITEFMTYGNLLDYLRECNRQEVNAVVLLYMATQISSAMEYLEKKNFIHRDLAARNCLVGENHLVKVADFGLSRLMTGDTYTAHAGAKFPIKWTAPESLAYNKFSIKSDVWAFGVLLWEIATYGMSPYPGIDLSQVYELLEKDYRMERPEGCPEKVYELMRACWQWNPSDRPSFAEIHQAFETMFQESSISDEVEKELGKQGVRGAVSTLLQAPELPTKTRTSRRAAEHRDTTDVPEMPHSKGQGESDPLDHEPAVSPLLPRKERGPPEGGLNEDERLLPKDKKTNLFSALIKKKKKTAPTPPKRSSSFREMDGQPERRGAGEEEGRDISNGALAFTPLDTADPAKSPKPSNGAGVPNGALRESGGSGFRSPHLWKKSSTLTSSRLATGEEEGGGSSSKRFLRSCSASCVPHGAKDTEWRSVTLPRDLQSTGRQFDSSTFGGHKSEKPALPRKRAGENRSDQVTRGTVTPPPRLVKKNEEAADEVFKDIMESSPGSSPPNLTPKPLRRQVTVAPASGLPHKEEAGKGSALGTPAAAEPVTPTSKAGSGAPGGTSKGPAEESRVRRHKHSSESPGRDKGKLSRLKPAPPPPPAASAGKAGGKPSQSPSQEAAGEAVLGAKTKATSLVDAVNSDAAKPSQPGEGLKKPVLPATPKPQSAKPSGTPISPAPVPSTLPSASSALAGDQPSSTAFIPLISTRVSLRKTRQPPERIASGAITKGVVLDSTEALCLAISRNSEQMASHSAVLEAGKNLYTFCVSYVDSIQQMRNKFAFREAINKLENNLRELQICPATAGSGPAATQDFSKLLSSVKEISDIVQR

Row | degradation of BCR-ABL protein (in words) (BCR-ABL protein) | DC50 (c-ABL protein) | DC50 (BCR-ABL protein) | IC50 (K562 (BCR-ABL+) cells) | IC50 (U937 (BCR-ABL-) cells) | SMILES | IC50 (HEK293 (BCR-ABL-) cells)
1 | cannot degrade BCR-ABL protein | – | – | – | – | Cc1nc(Nc2ncc(C(=O)Nc3c(C)cccc3Cl)s2)cc(N2CCN(CCCCCCOCCOCCOCCCCCC(=O)N[C@H](C(=O)N3C[C@H](O)C[C@H]3C(=O)NCc3ccc(-c4scnc4C)cc3)C(C)(C)C)CC2)n1 [Dasa-6-2-2-6-vhl, N-(2-chloro-6-methylphenyl)-2-((6-(4-((S)-3-((2S,4R)-4-hydroxy-2-((4-(4-methylthiazol-5-yl)benzyl)carbamoyl)pyrrolidine-1-carbonyl)-2,2-dimethyl-5-oxo-11,14,17-trioxa-4-azatricosan-23-yl)piperazin-1-yl)-2-methylpyrimidin-4-yl)amino)thiazole-5-carboxamide, reference compound] | –
2 | – | 100 to 1000 nM | 100 to 1000 nM | – | – | Cc1ccc(NC(=O)c2ccc(CN3CCN(C(=O)CCCCCCC(=O)N[C@H](C(=O)N4C[C@H](O)C[C@H]4C(=O)NCc4ccc(-c5scnc5C)cc4)C(C)(C)C)CC3)cc2)cc1Nc1nccc(-c2cccnc2)n1 [SIAIS074031, (2S,4R)-1-((S)-3,3-dimethyl-2-(8-(4-(4-((4-methyl-3-((4-(pyridin-3-yl)pyrimidin-2-yl)amino)phenyl)carbamoyl)benzyl)piperazin-1-yl)-8-oxooctanamido)butanoyl)-4-hydroxy-N-(4-(4-methylthiazol-5-yl)benzyl)pyrrolidine-2-carboxamide] | –
3 | – | 1 to 10 nM | 1 to 10 nM | 0.03 nM | > 10000 nM | Cc1nc(Nc2ncc(C(=O)Nc3c(C)cccc3Cl)s2)cc(N2CCN(C(=O)CCCCCNc3cccc4c3C(=O)N(C3CCC(=O)NC3=O)C4=O)CC2)n1 (stereo not shown) [SIAIS151075, N-(2-chloro-6-methylphenyl)-2-((6-(4-(6-((2-(2,6-dioxopiperidin-3-yl)-1,3-dioxoisoindolin-4-yl)amino)hexanoyl)piperazin-1-yl)-2-methylpyrimidin-4-yl)amino)thiazole-5-carboxamide] | > 10000 nM
4 | – | 1000 nM | 1000 nM | – | – | Cc1ccc(NC(=O)c2ccc(CN3CCN(C(=O)CCOCCOCCOCCOCCC(=O)N[C@H](C(=O)N4C[C@H](O)C[C@H]4C(=O)NCc4ccc(-c5scnc5C)cc4)C(C)(C)C)CC3)cc2)cc1Nc1nccc(-c2cccnc2)n1 [SIAIS1197039, (2S,4R)-1-((S)-2-(tert-butyl)-19-(4-(4-((4-methyl-3-((4-(pyridin-3-yl)pyrimidin-2-yl)amino)phenyl)carbamoyl)benzyl)piperazin-1-yl)-4,19-dioxo-7,10,13,16-tetraoxa-3-azanonadecanoyl)-4-hydroxy-N-(4-(4-methylthiazol-5-yl)benzyl)pyrrolidine-2-carboxamide] | –

Further lines, the compound ahead of its results:

Row | SMILES | degradation of BCR-ABL protein (in words) (BCR-ABL protein) | DC50 (c-ABL protein) | DC50 (BCR-ABL protein) | IC50 (K562 (BCR-ABL+) cells) | IC50 (U937 (BCR-ABL-) cells) | IC50 (HEK293 (BCR-ABL-) cells)
5 | Cc1nc(Nc2ncc(C(=O)Nc3c(C)cccc3Cl)s2)cc(N2CCN(C(=O)CCOCCNc3cccc4c3C(=O)N(C3CCC(=O)NC3=O)C4=O)CC2)n1 (stereo not shown) [SIAIS151063, N-(2-chloro-6-methylphenyl)-2-((6-(4-(3-(2-((2-(2,6-dioxopiperidin-3-yl)-1,3-dioxoisoindolin-4-yl)amino)ethoxy)propanoyl)piperazin-1-yl)-2-methylpyrimidin-4-yl)amino)thiazole-5-carboxamide] | – | 1 to 10 nM | 1 to 10 nM | 2.7 nM | 276 nM | 972 nM
6 | Cc1nc(Nc2ncc(C(=O)Nc3c(C)cccc3Cl)s2)cc(N2CCN(C(=O)CCOCCOCCNc3cccc4c3C(=O)N(C3CCC(=O)NC3=O)C4=O)CC2)n1 (stereo not shown) [SIAIS151064, N-(2-chloro-6-methylphenyl)-2-((6-(4-(3-(2-(2-((2-(2,6-dioxopiperidin-3-yl)-1,3-dioxoisoindolin-4-yl)amino)ethoxy)ethoxy)propanoyl)piperazin-1-yl)-2-methylpyrimidin-4-yl)amino)thiazole-5-carboxamide] | – | 10 to 100 nM | 1 to 10 nM | 8.05 nM | > 10000 nM | > 10000 nM
7 | Cc1nc(Nc2ncc(C(=O)Nc3c(C)cccc3Cl)s2)cc(N2CCN(C(=O)CCOCCOCCOCCNc3cccc4c3C(=O)N(C3CCC(=O)NC3=O)C4=O)CC2)n1 (stereo not shown) [SIAIS151067, N-(2-chloro-6-methylphenyl)-2-((6-(4-(3-(2-(2-(2-((2-(2,6-dioxopiperidin-3-yl)-1,3-dioxoisoindolin-4-yl)amino)ethoxy)ethoxy)ethoxy)propanoyl)piperazin-1-yl)-2-methylpyrimidin-4-yl)amino)thiazole-5-carboxamide] | – | 10 to 100 nM | 1 to 10 nM | 14.8 nM | > 10000 nM | > 10000 nM
8 | Cc1nc(Nc2ncc(C(=O)Nc3c(C)cccc3Cl)s2)cc(N2CCN(C(=O)CCOCCOCCOCCOCCNc3cccc4c3C(=O)N(C3CCC(=O)NC3=O)C4=O)CC2)n1 (stereo not shown) [SIAIS151068, N-(2-chloro-6-methylphenyl)-2-((6-(4-(1-((2-(2,6-dioxopiperidin-3-yl)-1,3-dioxoisoindolin-4-yl)amino)-3,6,9,12-tetraoxapentadecan-15-oyl)piperazin-1-yl)-2-methylpyrimidin-4-yl)amino)thiazole-5-carboxamide] | – | 10 to 100 nM | 1 to 10 nM | 40.4 nM | > 10000 nM | > 10000 nM
9 | Cc1nc(Nc2ncc(C(=O)Nc3c(C)cccc3Cl)s2)cc(N2CCN(C(=O)CCOCCOCCOCCOCCOCCNc3cccc4c3C(=O)N(C3CCC(=O)NC3=O)C4=O)CC2)n1 (stereo not shown) [SIAIS151069, N-(2-chloro-6-methylphenyl)-2-((6-(4-(1-((2-(2,6-dioxopiperidin-3-yl)-1,3-dioxoisoindolin-4-yl)amino)-3,6,9,12,15-pentaoxaoctadecan-18-oyl)piperazin-1-yl)-2-methylpyrimidin-4-yl)amino)thiazole-5-carboxamide] | – | 10 to 100 nM | 1 to 10 nM | 31.9 nM | > 10000 nM | > 10000 nM
10 | Cc1nc(Nc2ncc(C(=O)Nc3c(C)cccc3Cl)s2)cc(N2CCN(C(=O)CCCNc3cccc4c3C(=O)N(C3CCC(=O)NC3=O)C4=O)CC2)n1 (stereo not shown) [SIAIS151070, N-(2-chloro-6-methylphenyl)-2-((6-(4-(4-((2-(2,6-dioxopiperidin-3-yl)-1,3-dioxoisoindolin-4-yl)amino)butanoyl)piperazin-1-yl)-2-methylpyrimidin-4-yl)amino)thiazole-5-carboxamide] | – | 1 to 10 nM | 1 to 10 nM | 5.5 nM | > 10000 nM | > 10000 nM
11 | Cc1nc(Nc2ncc(C(=O)Nc3c(C)cccc3Cl)s2)cc(N2CCN(C(=O)CCCCNc3cccc4c3C(=O)N(C3CCC(=O)NC3=O)C4=O)CC2)n1 (stereo not shown) [SIAIS151071, N-(2-chloro-6-methylphenyl)-2-((6-(4-(5-((2-(2,6-dioxopiperidin-3-yl)-1,3-dioxoisoindolin-4-yl)amino)pentanoyl)piperazin-1-yl)-2-methylpyrimidin-4-yl)amino)thiazole-5-carboxamide] | – | 1 to 10 nM | < 1 nM | 0.55 nM | > 10000 nM | > 10000 nM
12 | Cc1nc(Nc2ncc(C(=O)Nc3c(C)cccc3Cl)s2)cc(N2CCN(C(=O)CNc3cccc4c3C(=O)N(C3CCC(=O)NC3=O)C4=O)CC2)n1 (stereo not shown) [SIAIS151072, N-(2-chloro-6-methylphenyl)-2-((6-(4-((2-(2,6-dioxopiperidin-3-yl)-1,3-dioxoisoindolin-4-yl)glycyl)piperazin-1-yl)-2-methylpyrimidin-4-yl)amino)thiazole-5-carboxamide] | – | 1 to 10 nM | < 1 nM | 1.22 nM | > 10000 nM | > 10000 nM
13 | COc1cc(Nc2c(C#N)cnc3cc(OCCCN4CCN(C(=O)CNc5cccc6c5C(=O)N(C5CCC(=O)NC5=O)C6=O)CC4)c(OC)cc23)c(Cl)cc1Cl (stereo not shown) [SIAIS151164, 4-((2,4-dichloro-5-methoxyphenyl)amino)-7-(3-(4-((2-(2,6-dioxopiperidin-3-yl)-1,3-dioxoisoindolin-4-yl)glycyl)piperazin-1-yl)propoxy)-6-methoxyquinoline-3-carbonitrile] | – | 10 to 100 nM | 10 to 100 nM | – | – | –
